Results from patent US20230248626A1, “Compositions Comprising (Bio)-Alkanediols” (Symrise AG, priority 0001, published 2023).
Values after ≈ are worked out from the molar mass of the structure shown. Blank lines part the entries; values can stand above or below the compound they belong to.

How the values were obtained:
[1] = tested on: Candida albicans; test: MIC test (growth inhibition, 96 well plates, OD); assay type: cell-based; conditions: read-out: Minimum Inhibitory Concentration (MIC)
Protocol: (§1) The MIC test is a test on growth inhibition. Estimation of Minimum Inhibitory Concentration (MIC) is executed in 96 well plates. Through the comparison of bacterial growth with positive and negative controls via optical density (OD), different concentrations of given test substances are evaluated.
(§2) Bacteria are cultivated under adjusted conditions based on information of the German Collection of Microorganisms and Cell Cultures (DSMZ) and stored in 50% Glycerol prior to use. Afterwards, the following method was applied: Adding growth medium (according to microorganism) to each well of the microplate. Adding the test-substances in different concentrations, positive controls (water controls only with medium) and negative controls (benchmarks according to organism). Adding the microorganism in a concentration of 10^6 CFU/ml (CFU=colony forming units). Incubation of the microplates at appropriate conditions.
(§3) According to resulting growth, substance concentrations are labelled either as inhibiting or not and MIC is defined as the lowest concentration where a complete growth inhibition is visible. Experiments at concentration limits (highest concentration labelled as growth and lowest concentration labelled as inhibiting) are performed at least twice.

[2] = tested on: Corynebacterium jeikeium; test: MIC test (growth inhibition, 96 well plates, OD); assay type: cell-based; conditions: read-out: Minimum Inhibitory Concentration (MIC)
Protocol: as §1, §2, §3

[3] = tested on: Escherichia coli; test: MIC test (growth inhibition, 96 well plates, OD); assay type: cell-based; conditions: read-out: Minimum Inhibitory Concentration (MIC)
Protocol: as §1, §2, §3

[4] = tested on: Propionibacterium acnes; test: MIC test (growth inhibition, 96 well plates, OD); assay type: cell-based; conditions: Cutibacterium acnes; read-out: Minimum Inhibitory Concentration (MIC)
Protocol: as §1, §2, §3

[5] = tested on: Staphylococcus aureus; test: MIC test (growth inhibition, 96 well plates, OD); assay type: cell-based; conditions: read-out: Minimum Inhibitory Concentration (MIC)
Protocol: as §1, §2, §3

[6] = tested on: Staphylococcus hominis; test: MIC test (growth inhibition, 96 well plates, OD); assay type: cell-based; conditions: read-out: Minimum Inhibitory Concentration (MIC)
Protocol: as §1, §2, §3

[7] = tested on: Aspergillus brasiliensis; test: MIC and Kull synergy index of 1,2-/2,3-alkanediol mixtures; assay type: cell-based; conditions: single 1,2-alkanediol, read-out: MIC Component A
[8] = tested on: Aspergillus brasiliensis (AB); test: Preservation efficacy test (PET), European Pharmacopoeia 5.1.3; assay type: cell-based
Protocol: (§4) The preservation efficacy test (PET) was performed in accordance with European Pharmacopoeia § 5.1.3: The test is a reference European Pharmacopoeia method, that is to be used to evaluate the preservation system of a cosmetic or pharmaceutical preparation. The test consists of challenging the preparation under test, with prescribed inoculums of suitable microorganisms. The preservation porperties of the preparation are adequate if, in the conditions of the test, there is a significant fall or no increase, as appropriate, in the number of microorganisms in the inoculated preparations after the time prescribed.
(§5) The test microorganisms which were used, are the following:
(§6) Pseudomonas aeruginosa (PA) (bacterium); Staphylococcus aureus (SA) (bacterium); Escherichia coli (EC) (bacterium); Candida albicans (CA) (yeast); and Aspergillus brasiliensis (AB) (fungus).

[9] = tested on: Candida albicans (CA); test: as above; assay type: cell-based
Protocol: as §4, §5, §6

[10] = tested on: Escherichia coli (EC); test: as above; assay type: cell-based
Protocol: as §4, §5, §6

[11] = tested on: Pseudomonas aeruginosa (PA); test: as above; assay type: cell-based
Protocol: as §4, §5, §6

[12] = tested on: Staphylococcus aureus (SA); test: as above; assay type: cell-based
Protocol: as §4, §5, §6

[13] = Sensory evaluation on the backside of the hand (spreading, fatty/greasy skin feel, absorption), untrained panellists; conditions: for Absorption/remaining residue with alkanediol: scale 1 to 5
Protocol: For evaluating the sensory behaviour, liquid lipophilic components specified in the following table were blended with 1,2-heptanediol or 2,3-heptanediol or a mixture of 1,2-heptanediol and 2,3-heptanediol or 1,2-octanediol or 2,3-octanediol or a mixture of 1,2-octanediol and 2,3-octanediol (formulation) in a ratio of 85:15 and assessed by untrained panellists in comparison to the liquid lipophilic component without addition of the specified alkanediols (placebo).
The test procedure was carried as follows: For evaluating the sensory behaviour of 1,2-alkanediols and/or 2,3-alkanediols in combination with different liquid lipophilic components, oil components specified in the following table were blended with a 1,2-alkanediol or a 2,3-alkanediol or a mixture including a 1,2-alkanediol and a 2,3-alkanediol in a ratio as specified in Table 53 and assessed by untrained panellists in comparison to the liquid lipophilic component without addition of the 1,2-alkanediol or 2,3-alkanediol or the mixture including a 1,2-alkanediol and 2,3-alkanediol (placebo).
Test Procedure: • Hands were pre-washed with liquid soap by following a defined procedure; 30 μl of corresponding sample was applied on the backside of each hand (randomized); • After 30 s the spreading behaviour of the respective formulation on skin was evaluated versus the respective oil component without 1,2-heptanediol on a scale from 1 to 5 (1=low spreading; 5=high spreading); • The samples were distributed with the fingertips of middle and forefinger with 2×5 cycles; • After 2 minutes, the fatty/greasy skin feel was evaluated on a scale from 1 to 5 (1=low fatty/greasy skin feel; 5=high fatty/greasy skin feel); • Furthermore the applicants were asked to assess the absorption, i.e. the impression of amount of remaining residue on the skin on a scale from 1 to 5 (1=low absorption; 5=high absorption).

[14] = tested on: human sebaceous glands; test: Sebum production of micro-dissected, cultured human sebaceous glands (lipids/proteins after six days); assay type: cell-based; parameters: sebum reduction: concentration or dose not given beside the values; conditions: compared to untreated control; six days; single donor (FIG. 4)
Protocol: Additional tests were performed with human sebaceous glands in order to verify the modulatory activity of different 1,2-alkanediols and 2,3-alkanediols on sebum secretion. Several microbial species on the skin are lipid dependent and feed on the human sebum (e.g. Corynebacterium, Propionibacterium). Accordingly, sebum reduction can indirectly support the reduction of microorganisms on the skin and in this way also indirectly support e.g. dandruff or acne reduction.
For these experiments sebaceous glands had been micro-dissected and cultured with medium. The medium without any supplement served as untreated control. Medium with 5 μM Capsaicin served as positive control. Additionally, culture medium was supplemented with different concentrations of alkanediols. After six days the sebaceous glands were collected and lipids and proteins quantified. The total lipid amount being representative of sebum production was obtained by normalizing the quantified lipids upon the quantified proteins (i.e. mg of lipids/mg of proteins).

MIC [1]: 250 µg/mL (≈ 1430 µM)
MIC [2]: 2500 µg/mL (≈ 14300 µM)
MIC [3]: 250 µg/mL (≈ 1430 µM)
MIC [4]: 500 µg/mL (≈ 2870 µM)
MIC [5]: 250 µg/mL (≈ 1430 µM)
MIC [6]: 500 µg/mL (≈ 2870 µM)
Compound: CCCCCCCCC(O)CO (stereo not drawn) [1,2-Decanediol, 1,2-decanediol, reference compound]

MIC [1]: 2500 µg/mL (≈ 17100 µM)
MIC [2]: 5000 µg/mL (≈ 34200 µM)
MIC [3]: 5000 µg/mL (≈ 34200 µM)
MIC [5]: 2500 µg/mL (≈ 17100 µM)
MIC [6]: 5000 µg/mL (≈ 34200 µM)
MIC [7]: 2500 µg/mL
Absorption/remaining residue Delta ([13]; blend with Argan Oil vs without): 1.2
Absorption/remaining residue with alkanediol ([13]; blend with Argan Oil): 2.6
Absorption/remaining residue Delta ([13]; blend with Avocado Oil vs without): 1.2
Absorption/remaining residue with alkanediol ([13]; blend with Avocado Oil): 2.6
Absorption/remaining residue Delta ([13]; blend with Cacao butter vs without): 0.6
Absorption/remaining residue with alkanediol ([13]; blend with Cacao butter): 3
Absorption/remaining residue Delta ([13]; blend with Castor Oil vs without): 1
Absorption/remaining residue with alkanediol ([13]; blend with Castor Oil): 3.4
Absorption/remaining residue Delta ([13]; blend with Coconut Oil vs without): 0.8
Absorption/remaining residue with alkanediol ([13]; blend with Coconut Oil): 3
Absorption/remaining residue Delta ([13]; blend with Grapeseed Oil vs without): 1
Absorption/remaining residue with alkanediol ([13]; blend with Grapeseed Oil): 1.6
Absorption/remaining residue Delta ([13]; blend with Helianthus Annuus (Sunflower) Seed Oil vs without): 1.8
Absorption/remaining residue with alkanediol ([13]; blend with Helianthus Annuus (Sunflower) Seed Oil): 2
Absorption/remaining residue Delta ([13]; blend with Octocrylene (Neo Heliopan 303), vs without): 0.5
Absorption/remaining residue with alkanediol ([13]; blend with Octocrylene (Neo Heliopan 303)): 3.5
Absorption/remaining residue Delta ([13]; blend with Olive Oil vs without): 1.4
Absorption/remaining residue with alkanediol ([13]; blend with Olive Oil): 2.6
Compound: CCCCCCC(O)CO (stereo not drawn) [1,2-octanediol]
number of microorganisms after 2 days ([8]; 0.1% in wet wipes solution): 22,000,000
number of microorganisms after 7 days ([8]; 0.1% in wet wipes solution): 8,500,000
number of microorganisms after 14 days ([8]; 0.1% in wet wipes solution): 11,000,000
number of microorganisms after 28 days ([8]; 0.1% in wet wipes solution): 12,000,000
number of microorganisms after 2 days ([8]; 0.2% in o/w emulsion): 2,400,000
number of microorganisms after 7 days ([8]; 0.2% in o/w emulsion): 2,700,000
number of microorganisms after 14 days ([8]; 0.2% in o/w emulsion): 2,100,000
number of microorganisms after 28 days ([8]; 0.2% in o/w emulsion): 1,200,000
number of microorganisms after 2 days ([9]; 0.1% in wet wipes solution): 4,700,000
number of microorganisms after 7 days ([9]; 0.1% in wet wipes solution): 3,900,000
number of microorganisms after 14 days ([9]; 0.1% in wet wipes solution): 5,800,000
number of microorganisms after 28 days ([9]; 0.1% in wet wipes solution): 9,300,000
number of microorganisms after 2 days ([9]; 0.2% in o/w emulsion): 950,000
number of microorganisms after 7 days ([9]; 0.2% in o/w emulsion): 15,000
number of microorganisms after 14 days ([9]; 0.2% in o/w emulsion): 36
number of microorganisms after 28 days ([9]; 0.2% in o/w emulsion): 1
number of microorganisms after 2 days ([10]; 0.1% in wet wipes solution): 1,300,000
number of microorganisms after 7 days ([10]; 0.1% in wet wipes solution): 3,500,000
number of microorganisms after 14 days ([10]; 0.1% in wet wipes solution): 2,100,000
number of microorganisms after 28 days ([10]; 0.1% in wet wipes solution): 2,300
number of microorganisms after 2 days ([10]; 0.2% in o/w emulsion): 1
number of microorganisms after 7 days ([10]; 0.2% in o/w emulsion): 1
number of microorganisms after 14 days ([10]; 0.2% in o/w emulsion): 1
number of microorganisms after 28 days ([10]; 0.2% in o/w emulsion): 1
number of microorganisms after 2 days ([11]; 0.1% in wet wipes solution): 1,300,000
number of microorganisms after 7 days ([11]; 0.1% in wet wipes solution): 2,500,000
number of microorganisms after 14 days ([11]; 0.1% in wet wipes solution): 750,000
number of microorganisms after 28 days ([11]; 0.1% in wet wipes solution): 350,000
number of microorganisms after 2 days ([11]; 0.2% in o/w emulsion): 1
number of microorganisms after 7 days ([11]; 0.2% in o/w emulsion): 1
number of microorganisms after 14 days ([11]; 0.2% in o/w emulsion): 1
number of microorganisms after 28 days ([11]; 0.2% in o/w emulsion): 1
number of microorganisms after 2 days ([12]; 0.1% in wet wipes solution): 425
number of microorganisms after 7 days ([12]; 0.1% in wet wipes solution): 50
number of microorganisms after 14 days ([12]; 0.1% in wet wipes solution): 50
number of microorganisms after 28 days ([12]; 0.1% in wet wipes solution): 50
number of microorganisms after 2 days ([12]; 0.2% in o/w emulsion): 1
number of microorganisms after 7 days ([12]; 0.2% in o/w emulsion): 1
number of microorganisms after 14 days ([12]; 0.2% in o/w emulsion): 1
number of microorganisms after 28 days ([12]; 0.2% in o/w emulsion): 1

Compound: CCCCCCCCCC(O)CO (stereo not drawn) [1,2-undecanediol]
sebum reduction [14]: 44%

MIC [1]: 250 µg/mL (≈ 1330 µM)
MIC [2]: 250 µg/mL (≈ 1330 µM)
MIC [3]: 500 µg/mL (≈ 2660 µM)
MIC [4]: 250 µg/mL (≈ 1330 µM)
MIC [5]: 250 µg/mL (≈ 1330 µM)
MIC [6]: 250 µg/mL (≈ 1330 µM)
Compound: CCCCCCCCC(O)C(C)O (stereo not drawn) [2,3-Undecanediol, 2,3-undecanediol]
sebum reduction [14]: more than 50%
